Columns and labels:
[1] = test system: MCF-7 cells; experiment: SRB antiproliferative assay, MCF-7; format: cell-based, human; conditions: for IC50: MCF-7 breast cancer cells, SRB assay, 48 h, mean ± S.D. of three experiments; for potency relative to Staurosporine, MCF-7: ratio of IC50 values, MCF-7 cells
Description: (§1) 1. Anti-proliferative action toward human breast cell lines […]
(§2) and non-tumorigenic human breast epithelial cell line (MCF-10A) have been obtained from American Type Culture Collection (ATCC). The cells were maintained in Dulbecco's modified Eagle's medium (DMEM) supplemented with 10% heat inactivated fetal calf serum (GIBCO), penicillin (100 U/ml) and streptomycin (100 µg/ml) at 37 °C in humidified atmosphere containing 5% CO2. […]
(§3) grown in a 25 cm2 flask in 5 ml of culture medium.
(§4) The anti-proliferative activity of the tested compounds was measured in vitro using the Sulfo-Rhodamine-B stain (SRB) assay. Briefly, Cells were inoculated in 96-well microtiter plate (5X104 cells/ well) for 24 h before treatment with the tested compounds to allow attachment of cell to the wall of the plate. Tested compounds were dissolved in DMSO at 1 mg/ml immediately before use and diluted to the appropriate volume just before addition to the cell culture. Different concentrations of tested compounds, doxorubicin and sorafenib were added to the cells (three wells were prepared for each […]
(§5) atmosphere of 5% CO2. After 48 h cells were fixed, washed, and stained for 30 min with 0.4% (w/v) SRB dissolved in 1% acetic acid. Unbound dye was removed by four washes with 1% acetic acid, and attached stain was recovered with Tris-EDTA buffer. Color intensity was measured in an ELISA reader. The relation between percent of surviving fraction and drug concentration is plotted to get the survival curve for each cell line. […]

[2] = test system: MDA-MB-231 cells; experiment: SRB antiproliferative assay, MDA-MB-231; format: cell-based, human; conditions: for IC50: MDA-MB-231 triple-negative breast cancer cells, SRB assay, 48 h, mean ± S.D. of three experiments; for potency relative to non-brominated counterpart (9g vs 9d, 9h vs 9e), MDA-MB-231 / potency relative to Staurosporine, MDA-MB-231: ratio of IC50 values, MDA-MB-231 cells
Description: as §1, §2, §3, §4, §5

[3] = test system: MCF-10A cells; experiment: SRB cytotoxicity assay, non-tumorigenic MCF-10A; format: cell-based, human; conditions: for Selectivity Index MCF-10A/MCF-7: IC50 MCF-10A / IC50 MCF-7; for IC50: non-tumorigenic human breast epithelial MCF-10A cells, SRB assay
Text: The two examined human breast cancer cell lines (MCF-7 and Breast MDA-MB-231), and non-tumorigenic human breast epithelial cell line (MCF-10A) have been obtained from the American Type Culture Collection (ATCC). Assessment of cytotoxicity for target indole derivatives has been performed following the SRB colorimetric assay procedures, as reported earlier.
1. Anti-proliferative action toward human breast cell lines
The two examined human breast cancer cell lines (MCF-7 and Breast MDA-MB-231), and non-tumorigenic human breast epithelial cell line (MCF-10A) have been obtained from American Type Culture Collection (ATCC). The cells were maintained in Dulbecco's modified Eagle's medium (DMEM) supplemented with 10% heat inactivated fetal calf serum (GIBCO), penicillin (100 U/ml) and streptomycin (100 µg/ml) at 37 °C in humidified atmosphere containing 5% CO2. Cells at a concentration of 0.50 x 106 were grown in a 25 cm2 flask in 5 ml of culture medium.
The anti-proliferative activity of the tested compounds was measured in vitro using the Sulfo-Rhodamine-B stain (SRB) assay. Briefly, Cells were inoculated in 96-well microtiter plate (5X104 cells/ well) for 24 h before treatment with the tested compounds to allow attachment of cell to the wall of the plate. Tested compounds were dissolved in DMSO at 1 mg/ml immediately before use and diluted to the appropriate volume just before addition to the cell culture. Different concentrations of tested compounds, doxorubicin and sorafenib were added to the cells (three wells were prepared for each individual dose). Cells were incubated with the compounds for 48 h at 37°C and in atmosphere of 5% CO2. After 48 h cells were fixed, washed, and stained for 30 min with 0.4% (w/v) SRB dissolved in 1% acetic acid. Unbound dye was removed by four washes with 1% acetic acid, and attached stain was recovered with Tris-EDTA buffer. Color intensity was measured in an ELISA reader. The relation between percent of surviving fraction and drug concentration is plotted to get the survival curve for each cell line. […]

[4] = target: T1, CDK2 (Homo sapiens, UniProt P24941); experiment: CDK2 kinase inhibition (Reaction Biology HotSpot); format: biochemical; conditions: single dose of 10 µM; for % Enzyme Inhibitory Activity: 10 µM; for inhibition at 10 µM: read-out: % Enzyme Inhibitory Activity
T1 construct: purchased Reaction Biology Corp. (Kinase HotSpot service)
Description: The in vitro CDK2 kinase inhibition assay was carried out by Reaction Biology Corp. (Reaction Biology Corp., Chester, PA, USA) Kinase HotSpotSM service (http://www.reactionbiology.com).
5. CDK2 kinase inhibitory activity
Reaction Biology Corp. Kinase HotSpotSM service
(http://www.reactionbiology.com) was used for screening of tested compounds. CDK2 Kinase inhibitory activity was assessed by the HotSpot assay platform, which contained specific kinase/substrate pairs along with required cofactors. Base reaction buffer:
0.1 mM Na3VO4, 2 mM DTT, 1% DMSO. Testing compounds were dissolved in 100% DMSO to specific concentration. The serial dilution was conducted by Integra Viaflo Assist in DMSO. The reaction mixture containing the examined compound and 33P-ATP was incubated at room temperature for 2 h and radioactivity was detected by filter-binding method. Kinase activity data were expressed as the percent remaining kinase activity in test samples compared to vehicle (dimethyl sulfoxide) reactions.

IC50 ([1]; Homo sapiens, MCF7, 48 h) | IC50 ([2]; Homo sapiens, MDA-MB-231, 48 h) | melting point | % Enzyme Inhibitory Activity [4] | inhibition at 10 µM [4] | Compound | IC50 [2] | potency relative to non-brominated counterpart (9g vs 9d, 9h vs 9e), MDA-MB-231 [2] | Selectivity Index MCF-10A/MCF-7 [3] | IC50 [3] | potency relative to Staurosporine, MCF-7 [1] | potency relative to Staurosporine, MDA-MB-231 [2] | IC50 [1]
84.7 ± 4.02 µM | > 100 µM | 244 to 245 °C |  |  | O=C(Cc1c[nH]c2ccccc12)NN=C1CCCc2ccccc21 [Compound 11, N′-(3,4-Dihydronaphthalen-1(2H)-ylidene)-2-(1H-indol-3-yl)acetohydrazide] | > 100 µM |  |  |  |  |  | 
2.76 ± 0.14 µM | 2.85 ± 0.07 µM | 210 to 211 °C |  |  | O=C(Cc1c[nH]c2ccccc12)NN=C1C(=O)N(Cc2ccccc2)c2ccc(Br)cc21 [Compound 9g, N′-(1-Benzyl-5-bromo-2-oxoindolin-3-ylidene)-2-(1H-indol-3-yl)acetohydrazide] |  | 1.5 times | 6.2 | 17.2 µM |  |  | 
1.53 ± 0.02 µM | 9.04 ± 0.32 µM | 281 to 283 °C | 41% | 44% | O=C(Cc1c[nH]c2ccccc12)NN=C1C(=O)Nc2ccc(F)cc21 [Compound 7a, N′-(5-Fluoro-2-oxoindolin-3-ylidene)-2-(1H-indol-3-yl)acetohydrazide] |  |  | 9.2 | 14.1 µM | 4.45 times |  | 
8.72 ± 0.39 µM | 25.4 ± 1.56 µM | 233 to 234 °C |  |  | N#Cc1ccc(CN2C(=O)C(=NNC(=O)Cc3c[nH]c4ccccc34)c3ccccc32)cc1 [Compound 9f, N′-(1-(4-Cyanobenzyl)-2-oxoindolin-3-ylidene)-2-(1H-indol-3-yl)acetohydrazide] |  |  | 4.8 | 42 µM |  |  | 
11 ± 0.81 µM | 0.34 ± 0.02 µM | > 300 °C |  | 58% | Cc1ccc2c(c1)C(=NNC(=O)Cc1c[nH]c3ccccc13)C(=O)N2 [Compound 7d, 2-(1H-Indol-3-yl)-N′-(5-methyl-2-oxoindolin-3-ylidene)acetohydrazide] |  |  | 5.0 | 54.9 µM |  | 30.3 times | 
10.4 ± 0.81 µM | 17.7 ± 0.55 µM | 227 to 229 °C |  |  | O=C(Cc1c[nH]c2ccccc12)NN=C1C(=O)N(Cc2ccc(F)cc2)c2ccccc21 [Compound 9e, N′-(1-(4-Fluorobenzyl)-2-oxoindolin-3-ylidene)-2-(1H-indol-3-yl)acetohydrazide] |  |  | 4.7 | 48.4 µM |  |  | 
20.89 ± 0.04 µM | 2.29 ± 0.09 µM | 183 to 185 °C |  |  | O=C(Cc1c[nH]c2ccccc12)NN=C1C(=O)N(Cc2ccc(F)cc2)c2ccc(Br)cc21 [Compound 9h, N′-(5-Bromo-1-(4-fluorobenzyl)-2-oxoindolin-3-ylidene)-2-(1H-indol-3-yl)acetohydrazide] |  | 7.7 times | 1.2 | 26.1 µM |  |  | 
 |  |  |  |  | N′-(1-(sec-Butyl)-2-oxoindolin-3-ylidene)-2-(1H-indol-3-yl)acetohydrazide [Compound 9c] | > 100 µM |  |  |  |  |  | 47.1 ± 3.65 µM
> 100 µM | 77.3 ± 6.21 µM | 294 to 296 °C |  |  | Cc1cc(C)c2c(c1)C(=NNC(=O)Cc1c[nH]c3ccccc13)C(=O)N2 [Compound 7f, N′-(5,7-Dimethyl-2-oxoindolin-3-ylidene)-2-(1H-indol-3-yl)acetohydrazide] |  |  |  |  |  |  | > 100 µM
36.2 ± 2.78 µM | 36.6 ± 1.81 µM | > 300 °C |  |  | O=C(Cc1c[nH]c2ccccc12)NN=C1C(=O)Nc2ccc(Br)cc21 [Compound 7c, N′-(5-Bromo-2-oxoindolin-3-ylidene)-2-(1H-indol-3-yl)acetohydrazide] |  |  |  |  |  |  | 
8.87 ± 0.43 µM | 2.88 ± 0.08 µM | 292 to 294 °C | 41% | 44% | O=C(Cc1c[nH]c2ccccc12)NN=C1C(=O)Nc2ccc(Cl)cc21 [Compound 7b, N′-(5-Chloro-2-oxoindolin-3-ylidene)-2-(1H-indol-3-yl)acetohydrazide] |  |  | 4.5 | 39.5 µM |  |  | 
1.51 ± 0.03 µM | 4.14 ± 0.19 µM | 223 to 225 °C |  |  | O=C(Cc1c[nH]c2ccccc12)NN=C1C(=O)N(Cc2ccccc2)c2ccccc21 [Compound 9d, N′-(1-Benzyl-2-oxoindolin-3-ylidene)-2-(1H-indol-3-yl)acetohydrazide] |  |  | 12.7 | 19.1 µM | 4.5 times | 2.5 times | 
28.2 ± 1.53 µM | 51.3 ± 3.59 µM | 207 to 208 °C |  |  | CCCN1C(=O)C(=NNC(=O)Cc2c[nH]c3ccccc23)c2ccccc21 [Compound 9b, 2-(1H-Indol-3-yl)-N′-(2-oxo-1-propylindolin-3-ylidene)acetohydrazide] |  |  |  |  |  |  | 

Compound | IC50 ([1]; Homo sapiens, MCF7, 48 h) | IC50 ([2]; Homo sapiens, MDA-MB-231, 48 h) | melting point | % Enzyme Inhibitory Activity [4] | inhibition at 10 µM [4] | IC50 [2] | potency relative to non-brominated counterpart (9g vs 9d, 9h vs 9e), MDA-MB-231 [2] | Selectivity Index MCF-10A/MCF-7 [3] | IC50 [3] | potency relative to Staurosporine, MCF-7 [1] | potency relative to Staurosporine, MDA-MB-231 [2] | IC50 [1]
CN[C@@H]1C[C@H]2O[C@@](C)([C@@H]1OC)n1c3ccccc3c3c4c(c5c6ccccc6n2c5c31)C(=O)NC4 [Staurosporine, reference compound] | 6.81 ± 0.22 µM |  |  |  |  |  |  |  |  |  |  | 

Reference: publication PMC7230731 (Marine Drugs, 2020)
